Calls of active or inactive are those of the source.
Key:
Eleocharis acicularis [1] = assay: Pre-emergence herbicidal activity against Eleocharis acicularis at 100 g a.i/ha measured after 14 days; format: functional, organism-based
Oryza sativa [2] = assay: Phytotoxicity against Oryza sativa cv. Koshihikari (rice) at 100 g a.i/ha measured after 14 days; format: organism-based; settings: in vivo, 336 h
[3] = system: Schoenoplectiella juncoides; assay: Pre-emergence herbicidal activity against Schoenoplectiella juncoides at 100 g a.i/ha measured after 14 days; format: functional, organism-based
Pontederia vaginalis [4] = assay: Pre-emergence herbicidal activity against Monochoria vaginalis at 100 g a.i/ha measured after 14 days; format: functional, organism-based
Ammannia multiflora [5] = assay: Pre-emergence herbicidal activity against Ammannia multiflora at 100 g a.i/ha measured after 14 days; format: functional, organism-based
Rotala indica [6] = assay: Pre-emergence herbicidal activity against Rotala indica at 100 g a.i/ha measured after 14 days; format: functional, organism-based
Elatine triandra [7] = assay: Pre-emergence herbicidal activity against Elatine triandra at 100 g a.i/ha measured after 14 days; format: functional, organism-based
Lindernia procumbens [8] = assay: Pre-emergence herbicidal activity against Lindernia procumbens at 100 g a.i/ha measured after 14 days; format: functional, organism-based
Cyperus difformis [9] = assay: Pre-emergence herbicidal activity against Cyperus difformis at 100 g a.i/ha measured after 14 days; format: functional, organism-based
Echinochloa oryzicola [10] = assay: Pre-emergence herbicidal activity against Echinochloa oryzicola at 100 g a.i/ha measured after 14 days; format: functional, organism-based
Oryza sativa [11] = assay: Phytotoxicity against Oryza sativa cv. Koshihikari (rice) at 500 g a.i/ha measured after 14 days; format: organism-based; settings: in vivo, 336 h
Eleocharis acicularis [12] = assay: Pre-emergence herbicidal activity against Eleocharis acicularis at 500 g a.i/ha measured after 14 days; format: functional, organism-based
Pontederia vaginalis [13] = assay: Pre-emergence herbicidal activity against Monochoria vaginalis at 500 g a.i/ha measured after 14 days; format: functional, organism-based
[14] = system: Schoenoplectiella juncoides; assay: Pre-emergence herbicidal activity against Schoenoplectiella juncoides at 500 g a.i/ha measured after 14 days; format: functional, organism-based
Ammannia multiflora [15] = assay: Pre-emergence herbicidal activity against Ammannia multiflora at 500 g a.i/ha measured after 14 days; format: functional, organism-based
Elatine triandra [16] = assay: Pre-emergence herbicidal activity against Elatine triandra at 500 g a.i/ha measured after 14 days; format: functional, organism-based
Rotala indica [17] = assay: Pre-emergence herbicidal activity against Rotala indica at 500 g a.i/ha measured after 14 days; format: functional, organism-based
Lindernia procumbens [18] = assay: Pre-emergence herbicidal activity against Lindernia procumbens at 500 g a.i/ha measured after 14 days; format: functional, organism-based
Echinochloa oryzicola [19] = assay: Pre-emergence herbicidal activity against Echinochloa oryzicola at 500 g a.i/ha measured after 14 days; format: functional, organism-based
Cyperus difformis [20] = assay: Pre-emergence herbicidal activity against Cyperus difformis at 500 g a.i/ha measured after 14 days; format: functional, organism-based
Eleocharis acicularis [21] = assay: Post-emergence herbicidal activity against Eleocharis acicularis assessed as bleaching of stem/leaf parts; format: functional, organism-based; also: test concentration or dose not given here
Eleocharis acicularis [22] = assay: Pre-emergence herbicidal activity against Eleocharis acicularis assessed as bleaching of stem/leaf parts; format: functional, organism-based
Ammannia multiflora [23] = assay: Pre-emergence herbicidal activity against Ammannia multiflora assessed as bleaching of stem/leaf parts; format: functional, organism-based
Rotala indica [24] = assay: Pre-emergence herbicidal activity against Rotala indica assessed as bleaching of stem/leaf parts; format: functional, organism-based
Elatine triandra [25] = assay: Pre-emergence herbicidal activity against Elatine triandra assessed as bleaching of stem/leaf parts; format: functional, organism-based
Lindernia procumbens [26] = assay: Pre-emergence herbicidal activity against Lindernia procumbens assessed as bleaching of stem/leaf parts; format: functional, organism-based
[27] = system: Schoenoplectiella juncoides; assay: Pre-emergence herbicidal activity against Schoenoplectiella juncoides assessed as bleaching of stem/leaf parts; format: functional, organism-based
Pontederia vaginalis [28] = assay: Pre-emergence herbicidal activity against Monochoria vaginalis assessed as bleaching of stem/leaf parts; format: functional, organism-based
Cyperus difformis [29] = assay: Pre-emergence herbicidal activity against Cyperus difformis assessed as bleaching of stem/leaf parts; format: functional, organism-based
Echinochloa oryzicola [30] = assay: Pre-emergence herbicidal activity against Echinochloa oryzicola assessed as bleaching of stem/leaf parts; format: functional, organism-based
Ammannia multiflora [31] = assay: Post-emergence herbicidal activity against Ammannia multiflora assessed as bleaching of stem/leaf parts; format: functional, organism-based; also: test concentration or dose not given here
Elatine triandra [32] = assay: Post-emergence herbicidal activity against Elatine triandra assessed as bleaching of stem/leaf parts; format: functional, organism-based; also: test concentration or dose not given here
Rotala indica [33] = assay: Post-emergence herbicidal activity against Rotala indica assessed as bleaching of stem/leaf parts; format: functional, organism-based; also: test concentration or dose not given here
[34] = system: Schoenoplectiella juncoides; assay: Post-emergence herbicidal activity against Schoenoplectiella juncoides assessed as bleaching of stem/leaf parts; format: functional, organism-based; also: test concentration or dose not given here
Lindernia procumbens [35] = assay: Post-emergence herbicidal activity against Lindernia procumbens assessed as bleaching of stem/leaf parts; format: functional, organism-based; also: test concentration or dose not given here
Pontederia vaginalis [36] = assay: Post-emergence herbicidal activity against Monochoria vaginalis assessed as bleaching of stem/leaf parts; format: functional, organism-based; also: test concentration or dose not given here
Cyperus difformis [37] = assay: Post-emergence herbicidal activity against Cyperus difformis assessed as bleaching of stem/leaf parts; format: functional, organism-based; also: test concentration or dose not given here
Echinochloa oryzicola [38] = assay: Post-emergence herbicidal activity against Echinochloa oryzicola assessed as bleaching of stem/leaf parts; format: functional, organism-based; also: test concentration or dose not given here

SMILES | Activity (Eleocharis acicularis [1]) | Activity (Oryza sativa [2]) | Activity [3] | Activity (Pontederia vaginalis [4]) | Activity (Ammannia multiflora [5]) | Activity (Rotala indica [6]) | Activity (Elatine triandra [7]) | Activity (Lindernia procumbens [8]) | Activity (Cyperus difformis [9]) | Activity (Echinochloa oryzicola [10]) | Activity (Oryza sativa [11]) | Activity (Eleocharis acicularis [12]) | Activity (Pontederia vaginalis [13]) | Activity [14] | Activity (Ammannia multiflora [15]) | Activity (Elatine triandra [16]) | Activity (Rotala indica [17]) | Activity (Lindernia procumbens [18]) | Activity (Echinochloa oryzicola [19]) | Activity (Cyperus difformis [20]) | also measured
Cn1cc(C(=O)NOc2ccc(F)cc2)c(OCc2cccc(C(F)(F)F)c2)n1 | Active | Non-toxic | inactive | Active | Active | Active | Active | Active | inactive | inactive | Non-toxic | Active | Active | Active | Active | Active | Active | Active | Active | Active | Activity (Eleocharis acicularis [21]): Active; Activity (Eleocharis acicularis [22]): Active; Activity (Ammannia multiflora [23]): Active; Activity (Rotala indica [24]): Active; Activity (Elatine triandra [25]): Active; Activity (Lindernia procumbens [26]): Active; Activity [27]: Active; Activity (Pontederia vaginalis [28]): Active; Activity (Cyperus difformis [29]): Active; Activity (Echinochloa oryzicola [30]): Active; Activity (Ammannia multiflora [31]): Active; Activity (Elatine triandra [32]): Active; Activity (Rotala indica [33]): Active; Activity [34]: Active; Activity (Lindernia procumbens [35]): Active; Activity (Pontederia vaginalis [36]): Active; Activity (Cyperus difformis [37]): Active; Activity (Echinochloa oryzicola [38]): Active
Cn1cc(C(=O)NOc2ccccc2Cl)c(OCc2cccc(C(F)(F)F)c2)n1 | Active | Non-toxic | inactive | Active | Active | Active | Active | Active | Active | inactive | Non-toxic | Active | Active | Active | Active | Active | Active | Active | Active | Active | Activity (Eleocharis acicularis [21]): Active; Activity (Eleocharis acicularis [22]): Active; Activity (Ammannia multiflora [23]): Active; Activity (Rotala indica [24]): Active; Activity (Elatine triandra [25]): Active; Activity (Lindernia procumbens [26]): Active; Activity [27]: Active; Activity (Pontederia vaginalis [28]): Active; Activity (Cyperus difformis [29]): Active; Activity (Echinochloa oryzicola [30]): Active; Activity (Ammannia multiflora [31]): Active; Activity (Elatine triandra [32]): Active; Activity (Rotala indica [33]): Active; Activity [34]: Active; Activity (Lindernia procumbens [35]): Active; Activity (Pontederia vaginalis [36]): Active; Activity (Cyperus difformis [37]): Active; Activity (Echinochloa oryzicola [38]): Active
Cn1cc(C(=O)NOc2ccc(Cl)cc2)c(OCc2cccc(C(F)(F)F)c2)n1 | Active | Non-toxic | Active | Active | Active | Active | Active | Active | Active | inactive | Non-toxic | Active | Active | Active | Active | Active | Active | Active | Active | Active | Activity (Eleocharis acicularis [21]): Active; Activity (Eleocharis acicularis [22]): Active; Activity (Ammannia multiflora [23]): Active; Activity (Rotala indica [24]): Active; Activity (Elatine triandra [25]): Active; Activity (Lindernia procumbens [26]): Active; Activity [27]: Active; Activity (Pontederia vaginalis [28]): Active; Activity (Cyperus difformis [29]): Active; Activity (Echinochloa oryzicola [30]): Active; Activity (Ammannia multiflora [31]): Active; Activity (Elatine triandra [32]): Active; Activity (Rotala indica [33]): Active; Activity [34]: Active; Activity (Lindernia procumbens [35]): Active; Activity (Pontederia vaginalis [36]): Active; Activity (Cyperus difformis [37]): Active; Activity (Echinochloa oryzicola [38]): Active

— ChEMBL document CHEMBL3046635, “Synthesis and Herbicidal Activity of New Pyrazole-4-carboxamide Derivatives” (J Pestic Sci, 2004)
